Measurements: ChEMBL document CHEMBL1149654, “Caprolactams as potent CGRP receptor antagonists for the treatment of migraine” (Bioorg Med Chem Lett, 2007)

Assays:
[1] = target: T1, Calcitonin-gene-related peptide receptor, CALCRL/RAMP1 (Homo sapiens, UniProt O60894+Q16602); experiment: Displacement of [125I]CGRP from human CL receptor in RAMP1 membranes; assay type: cell membranes
[2] = target: T1, Calcitonin-gene-related peptide receptor, CALCRL/RAMP1; experiment: Antagonist activity at human CGRP receptor in E10 cells assessed as inhibition of cAMP production; assay type: functional, cell-based
[3] = Bioavailability in rat at 10 mg/kg, po; assay type: ADME, organism-based; details: in vivo
[4] = Clearance in rat at 10 mg/kg, po; assay type: ADME, organism-based; design: dose 10 mg/kg, route oral; details: in vivo
[5] = target: T1, Calcitonin-gene-related peptide receptor, CALCRL/RAMP1; experiment: Displacement of [125I]CGRP from human CL receptor in RAMP1 membranes at 100 uM; assay type: cell membranes

T1 sequence (O60894 whole entry): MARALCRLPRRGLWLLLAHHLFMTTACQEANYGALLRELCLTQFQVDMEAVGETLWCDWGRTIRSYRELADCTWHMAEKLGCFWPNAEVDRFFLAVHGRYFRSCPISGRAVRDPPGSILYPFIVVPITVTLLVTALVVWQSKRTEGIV
T1 sequence (Q16602 whole entry): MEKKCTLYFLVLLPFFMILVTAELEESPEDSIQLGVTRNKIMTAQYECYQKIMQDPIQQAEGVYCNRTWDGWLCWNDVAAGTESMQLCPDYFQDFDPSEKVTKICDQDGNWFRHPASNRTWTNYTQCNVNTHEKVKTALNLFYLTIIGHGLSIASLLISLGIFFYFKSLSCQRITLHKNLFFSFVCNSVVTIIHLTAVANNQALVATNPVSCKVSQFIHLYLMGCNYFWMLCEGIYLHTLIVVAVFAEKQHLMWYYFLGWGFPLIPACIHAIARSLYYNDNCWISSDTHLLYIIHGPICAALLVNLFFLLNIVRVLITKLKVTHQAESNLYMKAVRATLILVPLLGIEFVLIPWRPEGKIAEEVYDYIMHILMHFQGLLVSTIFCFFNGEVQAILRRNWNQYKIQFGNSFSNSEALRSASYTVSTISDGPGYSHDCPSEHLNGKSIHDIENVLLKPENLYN

Row | SMILES | Ki [1] | IC50 [2] | bioavailability [3] | CL/F [4] | Activity [5]
1 | O=C(NC1CC(c2ccccc2)CCN(CC2CC2)C1=O)N1CCC(n2cc(-c3ccccc3)[nH]c2=O)CC1 (racemic; 29) | 35 nM | 133 nM | – | – | –
2 | CC(C)(C)OC(=O)CN1C(=O)[C@@H](NC(=O)N2CCC(N3Cc4ccccc4NC3=O)CC2)CCC[C@H]1c1ccccc1 | > 10000 nM | 471 nM | – | – | –
3 | O=C(N[C@H]1CC[C@H](c2ccccc2)CN(CC2CC2)C1=O)N1CCC(N2Cc3ccccc3NC2=O)CC1 | 5830 nM | 6630 nM | – | – | –
4 | O=C(NC1CCC(c2ccccc2)CN(CC2CC2)C1=O)N1CCC(N2Cc3ccccc3NC2=O)CC1 (racemic; 18) | 31 nM | 54 nM | – | – | –
5 | O=C(N[C@@H]1CCC[C@H](c2ccccc2)N(CC2CC2)C1=O)N1CCC(N2Cc3ccccc3NC2=O)CC1 | 689 nM | 408 nM | – | – | –
6 | O=C(N[C@H]1CCCCN(Cc2ccccc2)C1=O)N1CCC(N2Cc3ccccc3NC2=O)CC1 | 11100 nM | – | – | – | –
7 | O=C(N[C@@H]1CCCCN(CC2CC2)C1=O)N1CCC(N2Cc3ccccc3NC2=O)CC1 | 7800 nM | 2400 nM | – | – | –
8 | O=C(NC1CC(c2ccccc2)CCN(CC2CC2)C1=O)N1CCC(n2nc(-c3ccccc3)[nH]c2=O)CC1 (racemic; 27) | 544 nM | 3820 nM | – | – | –
9 | O=C(N[C@@H]1CC[C@@H](c2ccccc2)CN(CC2CC2)C1=O)N1CCC(N2Cc3ccccc3NC2=O)CC1 | 25 nM | 36 nM | – | – | –
10 | O=C(N[C@@H]1CC[C@@H](c2ccccc2)CN(CC2CC2)C1=O)N1CCC(N2CCc3ccccc3NC2=O)CC1 | 29 nM | 32 nM | – | – | –
11 | O=C(NC1CC(c2ccccc2)CCN(CC2CC2)C1=O)N1CCC(n2cc(-c3ccccc3)[nH]c2=O)CC1 (racemic; 30) | 17 nM | 141 nM | – | – | –
12 | CC(C)N1C(=O)C(NC(=O)N2CCC(N3Cc4ccccc4NC3=O)CC2)CCc2ccccc21 (configuration not stated) | 3700 nM | 3100 nM | – | – | –
13 | O=C(N[C@@H]1CC[C@@H](c2ccccc2)CN(CC2CC2)C1=O)N1CCC(n2cc(-c3ccccc3)[nH]c2=O)CC1 | 2 nM | 4 nM | 27% | 36 mL/min/kg | –
14 | O=C(N[C@@H]1CCCCN(Cc2ccccc2)C1=O)N1CCC(N2Cc3ccccc3NC2=O)CC1 | 1800 nM | – | – | – | –
15 | O=C(NC1CC(c2ccccc2)CCN(CC2CC2)C1=O)N1CCC(n2nc(-c3ccccc3)[nH]c2=O)CC1 (racemic; 28) | 266 nM | 488 nM | – | – | –
16 | CC(C)(C)OC(=O)CN1C(=O)C(NC(=O)N2CCC(N3Cc4ccccc4NC3=O)CC2)CCCC1c1ccccc1 (racemic; 13) | 1990 nM | 2120 nM | – | – | –
17 | O=C(N[C@@H]1CCN(Cc2ccccc2)C1=O)N1CCC(N2Cc3ccccc3NC2=O)CC1 | – | – | – | – | 63%
18 | O=C(N[C@@H]1CCCN(Cc2ccccc2)C1=O)N1CCC(N2Cc3ccccc3NC2=O)CC1 | – | – | – | – | 46%
19 | CC(C)N1C(=O)[C@H](NC(=O)N2CCC(N3Cc4ccccc4NC3=O)CC2)N=C(c2ccccc2)c2ccccc21 | 55 nM | 65 nM | – | – | –
20 | O=C(NC1CCC(c2ccccc2)CN(CC2CC2)C1=O)N1CCC(N2Cc3ccccc3NC2=O)CC1 (racemic; 17) | 695 nM | 778 nM | – | – | –
21 | O=C(N[C@@H]1CC[C@@H](c2ccccc2)CN(CC2CC2)C1=O)N1CCC(n2nc(-c3ccccc3)[nH]c2=O)CC1 | 29 nM | 45 nM | – | – | –
22 | CC(C)(C)OC(=O)CN1C(=O)[C@H](NC(=O)N2CCC(N3Cc4ccccc4NC3=O)CC2)CCC[C@@H]1c1ccccc1 | 934 nM | – | – | – | –
23 | CC(C)(C)OC(=O)CN1C(=O)C(NC(=O)N2CCC(N3Cc4ccccc4NC3=O)CC2)CCCC1c1ccccc1 (racemic; 12) | 17000 nM | – | – | – | –
